Experimental data: the supplement of paper PMC10307832

Tests used:
Assay in all cases: relative viability (nuclei count vs DMSO), 5 days (fraction); higher = more cells survive
[1] = compound: Cc1ccc(-n2nc(C(C)(C)C)cc2NC(=O)Nc2ccc(OCCN3CCOCC3)c3ccccc23)cc1 [Doramapimod] + C[C@]1(O)C[C@@H](c2nc(-c3ccc4ccc(-c5ccccc5)nc4c3)c3c(N)nccn32)C1 [Linsitinib] (partner 1 µM)
In short: (§1)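 Lung cancer cell lines were seeded in 1536-well plates and dosed by pin tool the next day, with either a single drug or a fixed anchor-drug dose combined with five library-drug doses (not always all listed) spaced in √10 steps. Five days later, one step fixed the cells and stained their nuclei (final 0.05% Triton X-100, 1% formaldehyde, 1 ug/ml Hoechst), and nuclei were counted on 4× images. Relative viability is the nuclei count in treated wells divided by the count in vehicle wells, and each value is the median of duplicate plates.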

[2] = compound: Cc1ccc(-n2nc(C(C)(C)C)cc2NC(=O)Nc2ccc(OCCN3CCOCC3)c3ccccc23)cc1 [Doramapimod] + CC(=O)c1c(C)c2cnc(Nc3ccc(N4CCNCC4)cn3)nc2n(C2CCCC2)c1=O [Palbociclib] (partner 0.5 µM)
In short: as §1

[3] = compound: Cn1c(Nc2ccc(C(F)(F)F)cc2)nc2cc(Oc3ccnc(-c4ncc(C(F)(F)F)[nH]4)c3)ccc21 [RAF265] + C[C@]1(O)C[C@@H](c2nc(-c3ccc4ccc(-c5ccccc5)nc4c3)c3c(N)nccn32)C1 [Linsitinib] (partner 1 µM)
In short: as §1

[4] = compound: Cc1ccc(-n2nc(C(C)(C)C)cc2NC(=O)Nc2ccc(OCCN3CCOCC3)c3ccccc23)cc1 [Doramapimod] + O=C(CCCCCCC(=O)Nc1ccccc1)NO [Vorinostat] (partner 1 µM)
In short: as §1

Cell Line | relative viability ([1]; first compound 0.02 µM) | relative viability ([1]; first compound 0.06325 µM) | relative viability ([1]; first compound 0.2 µM) | relative viability ([1]; first compound 0.6325 µM) | relative viability ([1]; first compound 2 µM) | relative viability ([2]; first compound 0.02 µM) | relative viability ([2]; first compound 0.06325 µM) | relative viability ([2]; first compound 0.2 µM) | relative viability ([2]; first compound 0.6325 µM) | relative viability ([2]; first compound 2 µM) | relative viability ([3]; first compound 0.01 µM) | relative viability ([3]; first compound 0.03162 µM) | relative viability ([3]; first compound 0.1 µM) | relative viability ([3]; first compound 0.3162 µM) | relative viability ([3]; first compound 1 µM) | relative viability ([4]; first compound 0.02 µM) | relative viability ([4]; first compound 0.06325 µM) | relative viability ([4]; first compound 0.2 µM) | relative viability ([4]; first compound 0.6325 µM) | relative viability ([4]; first compound 2 µM)
NCI-H1944 | 1.05 | 1.14 | 1.03 | 1.31 | 1.08 | 0.321 | 0.306 | 0.322 | 0.307 | 0.271 | 1.25 | 1.37 | 1.08 | 0.64 | 0.716 | 0.504 | 0.616 | 0.575 | 0.665 | 0.611
LK-2 | 0.284 | 0.388 | 0.348 | 0.42 | 0.22 | 0.515 | 0.576 | 0.54 | 0.518 | 0.413 | 0.615 | 0.555 | 0.67 | 0.671 | 0.351 | 0.283 | 0.296 | 0.266 | 0.242 | 0.29
HCC-15 | 0.846 | 0.863 | 0.889 | 0.944 | 0.806 | 0.548 | 0.772 | 0.755 | 0.686 | 0.525 | 0.886 | 0.835 | 0.754 | 0.639 | 0.394 | 0.859 | 0.901 | 0.834 | 0.971 | 0.807
NCI-H727 | 0.166 | 0.221 | 0.366 | 0.317 | 0.278 | 0.603 | 0.639 | 0.656 | 0.705 | 0.692 | 0.38 | 0.26 | 0.254 | 0.327 | 0.132 | 1.18 | 1.18 | 1.14 | 1.05 | 1.1
HOP-62 | 0.88 | 1 | 1.17 | 0.91 | 0.992 | 0.369 | 0.483 | 0.497 | 0.524 | 0.485 | 0.89 |  | 1.07 | 0.976 | 0.604 | 0.653 | 0.714 | 0.721 | 0.606 | 0.623
NCI-H3122 | 1.04 | 1.07 | 1.04 | 0.971 | 0.988 | 0.18 | 0.176 | 0.191 | 0.2 | 0.213 | 1.02 | 1.2 | 0.947 | 1.02 | 0.841 | 1.13 | 1.07 | 1.12 | 0.849 | 0.859
NCI-H1395 | 1.11 | 1.04 | 1.17 | 1.13 | 0.997 | 0.67 | 0.6 | 0.64 | 0.58 | 0.583 | 1.14 | 1 | 1.05 | 1.08 | 0.741 | 0.722 | 0.943 | 0.975 | 0.67 | 0.571
NCI-H647 | 1.22 | 1.24 | 1.15 | 1.03 | 1.04 | 0.346 | 0.335 | 0.375 | 0.404 | 0.345 | 0.801 | 0.991 | 1.01 | 0.574 | 0.519 | 0.336 | 0.621 | 0.429 | 0.548 | 0.381
NCI-H650 | 0.93 | 1.03 | 1.08 | 0.923 | 0.785 | 0.368 | 0.341 | 0.395 | 0.343 | 0.345 | 0.972 | 0.845 | 0.666 | 0.442 | 0.375 | 0.534 | 0.568 | 0.423 | 0.414 | 0.456
EKVX | 1.03 | 0.972 | 0.902 | 1.15 | 0.95 | 0.427 | 0.351 | 0.366 | 0.337 | 0.342 | 0.98 | 1.02 | 1.04 | 0.534 | 0.822 | 0.819 | 0.749 | 0.76 | 0.771 | 0.725
NCI-H460 | 0.71 | 0.736 | 0.733 | 0.875 | 0.641 | 0.197 | 0.195 | 0.208 | 0.279 | 0.141 | 0.812 | 0.692 | 0.647 |  | 0.378 | 0.773 | 0.817 | 0.76 | 0.794 | 0.551
LCLC-97TM1 | 0.181 | 0.169 | 0.161 | 0.191 | 0.17 | 0.233 | 0.211 | 0.257 | 0.219 | 0.171 | 0.169 | 0.158 | 0.149 | 0.136 | 0.11 | 0.73 | 0.635 | 0.747 | 0.615 | 0.56
COR-L23 | 0.962 | 0.917 | 0.827 | 0.933 | 0.931 | 0.29 | 0.317 | 0.298 | 0.338 | 0.283 | 0.847 | 0.838 | 0.662 | 0.431 | 0.312 | 0.449 | 0.489 | 0.386 | 0.537 | 0.424
NCI-H1355 | 0.804 | 0.819 | 0.824 | 0.908 | 0.779 | 0.412 | 0.373 | 0.413 | 0.385 | 0.368 | 0.791 | 0.67 | 0.72 | 0.458 | 0.298 | 0.621 | 0.577 | 0.64 | 0.704 | 0.566
